{"source": "patent US20020164314A1", "about": "“Ovarian hormone induced neural stem cell increase” (Neurostasis, Inc., priority 2001, published 2002)", "origin": "cited, not measured here", "key": {"[1]": {"tested_on": "proliferating cells in the dentate gyrus"}, "[2]": {"tested_on": "development of female characteristics in animals"}, "[3]": {"settings": "corticosterone, Alonso 2000, adult rats"}}, "data": [{"compound": "Estrogen", "values": [{"measurement": "number of new neurons in the dentate gyrus", "setting": "[1]; Tanapat et al. 1999, adult female", "result": "transient increase"}, {"measurement": "proliferation in the dentate gyrus", "setting": "[1]; Tanapat et al. 1999, adult female rat", "result": "stimulate proliferation"}, {"measurement": "mitotic activity in the subventricular zone", "setting": "SVZ proliferating cells; Tanapat et al. 1999", "result": "no mitotic activity"}]}, {"compound": "C[C@]12C[C@H](O)[C@H]3[C@@H](CCC4=CC(=O)CC[C@@]43C)[C@@H]1CC[C@@H]2C(=O)CO", "note": "[corticosterone]", "values": [{"measurement": "cell proliferation in the dentate gyrus", "setting": "[1]; [3]", "result": "dramatically decreases"}, {"measurement": "effect on the SVZ proliferating cells", "setting": "SVZ proliferating cells; [3]", "result": "no effect"}]}, {"compound": "C[C@]12CC[C@@H]3c4ccc(O)cc4CC[C@H]3[C@@H]1CC[C@@H]2O", "note": "[β-estradiol]", "values": [{"measurement": "estrogenic potency relative to estriol", "setting": "[2]; ratio versus estriol", "result": 80, "unit": "times"}, {"measurement": "estrogenic potency relative to estrone", "setting": "[2]; ratio versus estrone", "result": 12, "unit": "times"}]}]}
